Patent US10925856B2, “Methods and compositions involving bucindolol for the treatment of atrial fibrillation” (priority 2018, dated 2021)

Tested on: NT-proBNP
Test: Plasma NT-proBNP (electrochemiluminescence immunoassay)
[1] = Europe excluding Hungary (n = 48)
[2] = change from baseline, Canada (n = 59)
[3] = change from baseline, Entire Cohort (n = 267)
[4] = change from baseline, Europe excluding Hungary (n = 48)
[5] = change from baseline, Hungary (n = 33)
[6] = change from baseline, U.S. (n = 127)

SMILES: COCCc1ccc(OCC(O)CNC(C)C)cc1 (stereo not drawn) [metoprolol, metoprolol succinate, reference compound]
- NT-proBNP, Week 4 Mean (Canada): 1715 pg/mL
- NT-proBNP, Week 4 Median (Canada): 1067 pg/mL
- NT-proBNP, ΔWeek 4 Mean ± SEM (Canada): -91 pg/mL
- NT-proBNP, ΔWeek 4 Median (Canada): -101 pg/mL
- NT-proBNP, Baseline Mean ± SD (Canada (n = 59)): 1646 ± 2303 pg/mL
- NT-proBNP, Baseline Median (Canada (n = 59)): 913 pg/mL
- NT-proBNP, Week 12 Mean ± SD (Canada (n = 59)): 1338 ± 1504 pg/mL
- NT-proBNP, Week 12 Median (Canada (n = 59)): 845 pg/mL
- NT-proBNP, Week 24 Mean ± SD (Canada (n = 59)): 1382 ± 1974 pg/mL
- NT-proBNP, Week 24 Median (Canada (n = 59)): 623 pg/mL
- NT-proBNP, Week 4 Mean (Entire Cohort): 1212 pg/mL
- NT-proBNP, Week 4 Median (Entire Cohort): 792 pg/mL
- NT-proBNP, ΔWeek 4 Mean ± SEM (Entire Cohort): -50 pg/mL
- NT-proBNP, ΔWeek 4 Median (Entire Cohort): -35 pg/mL
- NT-proBNP, Baseline Median (Entire Cohort (n = 267)): 861 pg/mL
- NT-proBNP, Week 12 Mean ± SD (Entire Cohort (n = 267)): 1134 ± 1197 pg/mL
- NT-proBNP, Week 12 Median (Entire Cohort (n = 267)): 652 pg/mL
- NT-proBNP, Week 24 Mean ± SD (Entire Cohort (n = 267)): 1334 ± 1732 pg/mL
- NT-proBNP, Week 24 Median (Entire Cohort (n = 267)): 661 pg/mL
- NT-proBNP, Week 4 Mean (Europe excluding Hungary): 820 pg/mL
- NT-proBNP, Week 4 Median (Europe excluding Hungary): 433 pg/mL
- NT-proBNP, ΔWeek 4 Mean ± SEM (Europe excluding Hungary): -117 pg/mL
- NT-proBNP, ΔWeek 4 Median (Europe excluding Hungary): -93 pg/mL
- NT-proBNP, Baseline Mean ± SD [1]: 883 ± 880 pg/mL
- NT-proBNP, Baseline Median [1]: 521 pg/mL
- NT-proBNP, Week 12 Mean ± SD [1]: 867 ± 885 pg/mL
- NT-proBNP, Week 12 Median [1]: 526 pg/mL
- NT-proBNP, Week 24 Mean ± SD [1]: 1108 ± 962 pg/mL
- NT-proBNP, Week 4 Mean (Hungary): 812 pg/mL
- NT-proBNP, Week 4 Median (Hungary): 803 pg/mL
- NT-proBNP, ΔWeek 4 Mean ± SEM (Hungary): -11 pg/mL
- NT-proBNP, ΔWeek 4 Median (Hungary): -40 pg/mL
- NT-proBNP, Baseline Mean ± SD (Hungary (n = 33)): 781 ± 458 pg/mL
- NT-proBNP, Baseline Median (Hungary (n = 33)): 785 pg/mL
- NT-proBNP, Week 12 Mean ± SD (Hungary (n = 33)): 864 ± 876 pg/mL
- NT-proBNP, Week 12 Median (Hungary (n = 33)): 593 pg/mL
- NT-proBNP, Week 24 Mean ± SD (Hungary (n = 33)): 1150 ± 784 pg/mL
- NT-proBNP, Week 24 Median (Hungary (n = 33)): 1019 pg/mL
- NT-proBNP, Week 4 Mean (U.S.): 1227 pg/mL
- NT-proBNP, Week 4 Median (U.S.): 831 pg/mL
- NT-proBNP, ΔWeek 4 Mean ± SEM (U.S.): -14 pg/mL
- NT-proBNP, ΔWeek 4 Median (U.S.): -27 pg/mL
- NT-proBNP, Baseline Mean ± SD (U.S. (n = 127)): 1499 ± 2033 pg/mL
- NT-proBNP, Baseline Median (U.S. (n = 127)): 982 pg/mL
- NT-proBNP, Week 12 Mean ± SD (U.S. (n = 127)): 1224 ± 1240 pg/mL
- NT-proBNP, Week 12 Median (U.S. (n = 127)): 661 pg/mL
- NT-proBNP, Week 24 Mean ± SD (U.S. (n = 127)): 1374 ± 1839 pg/mL
- NT-proBNP, Week 24 Median (U.S. (n = 127)): 547 pg/mL
- NT-proBNP, ΔWeek 12 Mean ± SEM [2]: -482 ± 355 pg/mL
- NT-proBNP, ΔWeek 12 Median [2]: -36 pg/mL
- NT-proBNP, ΔWeek 24 Mean ± SEM [2]: -489 ± 361 pg/mL
- NT-proBNP, ΔWeek 24 Median [2]: -106 pg/mL
- NT-proBNP, ΔWeek 12 Mean ± SEM [3]: -135 ± 124 pg/mL
- NT-proBNP, ΔWeek 12 Median [3]: -50 pg/mL
- NT-proBNP, ΔWeek 24 Median [3]: -100 pg/mL
- NT-proBNP, ΔWeek 12 Mean ± SEM [4]: -70 ± 184 pg/mL
- NT-proBNP, ΔWeek 12 Median [4]: -20 pg/mL
- NT-proBNP, ΔWeek 24 Mean ± SEM [4]: -133 ± 153 pg/mL
- NT-proBNP, ΔWeek 24 Median [4]: -101 pg/mL
- NT-proBNP, ΔWeek 12 Mean ± SEM [5]: +45 ± 190 pg/ml
- NT-proBNP, ΔWeek 12 Median [5]: +75 pg/ml
- NT-proBNP, ΔWeek 24 Mean ± SEM [5]: +201 ± 219 pg/ml
- NT-proBNP, ΔWeek 24 Median [5]: +150 pg/ml
- NT-proBNP, ΔWeek 12 Mean ± SEM [6]: -63 ± 190 pg/mL
- NT-proBNP, ΔWeek 12 Median [6]: -99 pg/mL
- NT-proBNP, ΔWeek 24 Mean ± SEM [6]: -158 ± 258 pg/mL
- NT-proBNP, ΔWeek 24 Median [6]: -135 pg/mL
- NT-proBNP, ΔWeek 4 Median (change from baseline, entire cohort): -35 pg/mL
- NT-proBNP decrease (end of the 24-week follow-up period, U.S.): 20%
